For two molecules, kobs and Kd results are on record in paper PMC3499586, “Heterotrimeric G-protein Signaling Is Critical to Pathogenic Processes in Entamoeba histolytica” (PLoS Pathogens, 2012).

One test has as its target T1, human Gαi1 (Homo sapiens, UniProt P63096).
T1 construct: gene GNAI1; purified protein; details not in main text
In words: […]GTPγS radionucleotide binding. To be noted: 30 °C; association limited by spontaneous GDP release; labelled compound; a rate, not an affinity; figure legend gives 0.06 ±0.01.

The target of another test is T2, EhGα1 (Entamoeba histolytica, UniProt C4M483).
T2 construct: gene EHI_140350; E. coli; N-terminal TEV-cleavable His6 tag; HM-1:IMSS used for trophozoite work
In words: […]GTPγS radionucleotide binding. To be noted: 30 °C; association limited by spontaneous GDP release; labelled compound; a rate, not an affinity.

In a further test the target is T3, EhRGS-RhoGEF (E. histolytica, UniProt C4LYV4 1-519).
T3 chain: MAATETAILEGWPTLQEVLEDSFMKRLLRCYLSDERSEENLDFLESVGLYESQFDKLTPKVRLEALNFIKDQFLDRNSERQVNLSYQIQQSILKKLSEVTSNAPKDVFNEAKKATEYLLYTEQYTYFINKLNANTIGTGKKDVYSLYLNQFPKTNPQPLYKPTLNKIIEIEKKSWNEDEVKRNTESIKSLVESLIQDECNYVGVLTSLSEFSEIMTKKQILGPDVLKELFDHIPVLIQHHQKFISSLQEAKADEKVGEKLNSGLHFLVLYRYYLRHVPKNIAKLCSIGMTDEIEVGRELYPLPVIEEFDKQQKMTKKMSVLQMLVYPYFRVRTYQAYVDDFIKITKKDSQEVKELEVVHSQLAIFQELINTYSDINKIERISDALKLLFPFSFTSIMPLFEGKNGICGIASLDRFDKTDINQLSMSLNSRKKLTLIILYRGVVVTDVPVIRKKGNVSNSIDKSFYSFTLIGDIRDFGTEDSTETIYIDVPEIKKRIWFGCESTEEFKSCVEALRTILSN
In words: SPR.

T1 sequence (P63096 2-354): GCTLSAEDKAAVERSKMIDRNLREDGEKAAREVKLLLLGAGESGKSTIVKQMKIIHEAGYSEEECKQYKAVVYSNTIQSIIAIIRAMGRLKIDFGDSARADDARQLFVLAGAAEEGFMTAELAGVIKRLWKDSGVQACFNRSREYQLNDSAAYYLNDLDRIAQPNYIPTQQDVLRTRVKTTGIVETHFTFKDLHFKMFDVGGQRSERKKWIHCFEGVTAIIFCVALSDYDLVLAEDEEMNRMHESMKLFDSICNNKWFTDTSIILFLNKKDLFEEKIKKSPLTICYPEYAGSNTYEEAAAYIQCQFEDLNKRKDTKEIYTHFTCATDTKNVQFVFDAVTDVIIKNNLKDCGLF

Consider `Nc1nc2c(ncn2[C@@H]2O[C@H](COP(=O)(O)OP(=O)(O)OP(O)(O)=S)[C@@H](O)[C@H]2O)c(=O)[nH]1` [GTPγS], for which the kobs on human Gαi1 stood at 0.064 min⁻¹; at EhGα1 it was 0.27 ± 0.06 min⁻¹.

B1: EhGα1 (recombinant, purified from E. coli) (natural protein)
chain: MGCGQSKDNSIDKQIVEMAKSKPITVMLLGSGESGKSTIAKQLKILFGGGFPEQERATHKSSICSNVVTCMRTLIEQSAILNHPMKYQPKSKEFTTEDPVTLPFSPELVGDVEALWADEGIQATYEESAKFQLPDCAKYLFENVKRIAMEDYVPTEEDLIHNRTKTTGIHEYDFVVKDIPFHLIDVGGQRSERKKWVSFFSDVDCAIFVTSLAEYDMKLYEDGNTSRLTESIAVFKDIMTNEFLKGAVKLIFLNKMDLFEEKLTKVPLNTIFPEYTGGDNAVMGAQYIQQLFTGKLQTEEMNISGADGTANIEGAVNEKVYTNPTNATDGSNIKRVFMLAVDVIMKNMAANGKMRPTK
As to B1, the affinity with EhRGS-RhoGEF, expressed as Kd, was 2100 nM.
